In ChEMBL document CHEMBL5360558, “Molecular design, synthesis and anticancer activity of new thiopyrano[2,3-d]thiazoles based on 5-hydroxy-1,4-naphthoquinone (juglone)” (Eur J Med Chem, 2023):
Activity calls are given as the source filed them. The rule behind the calls is not given here.

Assays:
[1] = tested on: CCRF-CEM; experiment: Induction of cell cycle arrest in human CCRF-CEM cells assessed as accumulation of cells at M phase at 20.7 uM incubated for 24 hrs by propidium iodide staining based flow cytometry analysis (reference value: 1.97 +/- 0.042%); assay type: functional
[2] = tested on: HL-60; experiment: Growth inhibition against human HL-60 cells assessed as lethal concentration incubated for 48 hrs by sulforhodamine B spectrophotometric assay; assay type: functional; settings: read-out: LC50 (the source's name)
[3] = Cytotoxicity against mouse J774.2 cells assessed as cell growth inhibition incubated for 72 hrs by MTT assay; assay type: toxicity, cell-based
[4] = Acute toxicity in C57BL/6 mouse assessed as ratio of kidney weight to body weight at 20 mg/kg,ip administration and observed after 22 days (reference value: 1.39 +/- 0.09); assay type: organism-based; settings: in vivo, 528 h, time 22 day
[5] = tested on: CCRF-CEM; experiment: Induction of cell cycle arrest in human CCRF-CEM cells assessed as accumulation of cells at S phase at 4.14 uM incubated for 24 hrs by propidium iodide staining based flow cytometry analysis (reference value: 41.09 +/- 0.5%); assay type: functional
[6] = tested on: HCT-116; experiment: Cytotoxicity against human HCT-116 cells assessed as cell growth inhibition incubated for 72 hrs by MTT assay; assay type: functional, cell-based; settings: HCT-116, 72 h
[7] = tested on: MDA-MB-435; experiment: Growth inhibition against human MDA-MB-435 cells assessed as total growth inhibitory concentration incubated for 48 hrs by sulforhodamine B spectrophotometric assay; assay type: functional
[8] = tested on: OVCAR-3; experiment: Growth inhibition of human OVCAR-3 cells incubated for 48 hrs by sulforhodamine B spectrophotometric assay; assay type: functional
[9] = tested on: CCRF-CEM; experiment: Induction of cell cycle arrest in human CCRF-CEM cells assessed as accumulation of cells at higher G2/M phase at 4.14 uM incubated for 24 hrs by propidium iodide staining based flow cytometry analysis (reference value: 10.09 +/- 0.14%); assay type: functional
[10] = tested on: LOX IMVI; experiment: Growth inhibition against human LOX IMVI cells assessed as total growth inhibitory concentration incubated for 48 hrs by sulforhodamine B spectrophotometric assay; assay type: functional
[11] = tested on: MOLT-4; experiment: Growth inhibition against human MOLT-4 cells assessed as total growth inhibitory concentration incubated for 48 hrs by sulforhodamine B spectrophotometric assay; assay type: functional
[12] = Acute toxicity in C57BL/6 mouse assessed as survival rate at 20 mg/kg,ip administration observed after 22 days; assay type: organism-based; settings: in vivo, time 22 day
[13] = Cytotoxicity against mouse NIH3T3 cells assessed as cell growth inhibition incubated for 72 hrs by MTT assay; assay type: toxicity, cell-based
[14] = tested on: UACC-257; experiment: Growth inhibition against human UACC-257 cells assessed as lethal concentration incubated for 48 hrs by sulforhodamine B spectrophotometric assay; assay type: functional; settings: read-out: LC50 (the source's name)
[15] = tested on: IGROV-1; experiment: Growth inhibition against human IGROV-1 cells assessed as total growth inhibitory concentration incubated for 48 hrs by sulforhodamine B spectrophotometric assay; assay type: functional
[16] = tested on: HCT-15; experiment: Growth inhibition against human HCT-15 cells assessed as lethal concentration incubated for 48 hrs by sulforhodamine B spectrophotometric assay; assay type: functional; settings: read-out: LC50 (the source's name)
[17] = tested on: HOP-92; experiment: Growth inhibition of human HOP-92 cells incubated for 48 hrs by sulforhodamine B spectrophotometric assay; assay type: functional
[18] = tested on: OVCAR-8; experiment: Growth inhibition of human OVCAR-8 cells incubated for 48 hrs by sulforhodamine B spectrophotometric assay; assay type: functional
[19] = tested on: A549; experiment: Growth inhibition against human A549 cells assessed as total growth inhibitory concentration incubated for 48 hrs by sulforhodamine B spectrophotometric assay; assay type: functional
[20] = tested on: OVCAR-4; experiment: Growth inhibition against human OVCAR-4 cells assessed as total growth inhibitory concentration incubated for 48 hrs by sulforhodamine B spectrophotometric assay; assay type: functional
[21] = tested on: RXF 393; experiment: Growth inhibition against human RXF 393 cells assessed as lethal concentration incubated for 48 hrs by sulforhodamine B spectrophotometric assay; assay type: functional; settings: read-out: LC50 (the source's name)
[22] = tested on: CCRF-CEM; experiment: Induction of cell cycle arrest in human CCRF-CEM cells assessed as accumulation of cells at M phase at 4.14 uM incubated for 24 hrs by propidium iodide staining based flow cytometry analysis (reference value: 1.97 +/- 0.042%); assay type: functional
[23] = tested on: DU-145; experiment: Growth inhibition against human DU-145 cells assessed as total growth inhibitory concentration incubated for 48 hrs by sulforhodamine B spectrophotometric assay; assay type: functional
[24] = tested on: MDA-MB-231; experiment: Growth inhibition of human MDA-MB-231 cells incubated for 48 hrs by sulforhodamine B spectrophotometric assay; assay type: functional
[25] = tested on: SK-MEL-2; experiment: Growth inhibition of human SK-MEL-2 cells incubated for 48 hrs by sulforhodamine B spectrophotometric assay; assay type: functional
[26] = tested on: K562; experiment: Cytotoxicity against human K562 cells assessed as cell growth inhibition incubated for 72 hrs by MTT assay; assay type: functional, cell-based; settings: K562, 72 h
[27] = tested on: SK-MEL-2; experiment: Growth inhibition against human SK-MEL-2 cells assessed as total growth inhibitory concentration incubated for 48 hrs by sulforhodamine B spectrophotometric assay; assay type: functional
[28] = tested on: OVCAR-3; experiment: Growth inhibition against human OVCAR-3 cells assessed as total growth inhibitory concentration incubated for 48 hrs by sulforhodamine B spectrophotometric assay; assay type: functional
[29] = tested on: OVCAR-5; experiment: Growth inhibition of human OVCAR-5 cells incubated for 48 hrs by sulforhodamine B spectrophotometric assay; assay type: functional
[30] = tested on: NCI-H226; experiment: Growth inhibition of human NCI-H226 cells incubated for 48 hrs by sulforhodamine B spectrophotometric assay; assay type: functional
[31] = tested on: RPMI-8226; experiment: Growth inhibition of human RPMI-8226 cells incubated for 48 hrs by sulforhodamine B spectrophotometric assay; assay type: functional
[32] = tested on: CAKI-1; experiment: Growth inhibition against human CAKI-1 cells assessed as lethal concentration incubated for 48 hrs by sulforhodamine B spectrophotometric assay; assay type: functional; settings: read-out: LC50 (the source's name)
[33] = tested on: NCI-H322M; experiment: Growth inhibition against human NCI-H322M cells assessed as lethal concentration incubated for 48 hrs by sulforhodamine B spectrophotometric assay; assay type: functional; settings: read-out: LC50 (the source's name)
[34] = tested on: Jurkat; experiment: Induction of apoptosis in human Jurkat cells assessed as DNA damage by DNA laddering assay; assay type: functional, cell-based
[35] = tested on: RXF 393; experiment: Growth inhibition against human RXF 393 cells assessed as total growth inhibitory concentration incubated for 48 hrs by sulforhodamine B spectrophotometric assay; assay type: functional
[36] = tested on: 786-0; experiment: Growth inhibition of human 786-0 cells incubated for 48 hrs by sulforhodamine B spectrophotometric assay; assay type: functional
[37] = tested on: HT-29; experiment: Growth inhibition of human HT-29 cells incubated for 48 hrs by sulforhodamine B spectrophotometric assay; assay type: functional
[38] = tested on: MDA-MB-435; experiment: Growth inhibition against human MDA-MB-435 cells assessed as lethal concentration incubated for 48 hrs by sulforhodamine B spectrophotometric assay; assay type: functional; settings: read-out: LC50 (the source's name)
[39] = tested on: OVCAR-5; experiment: Growth inhibition against human OVCAR-5 cells assessed as lethal concentration incubated for 48 hrs by sulforhodamine B spectrophotometric assay; assay type: functional; settings: read-out: LC50 (the source's name)
[40] = tested on: HOP-62; experiment: Growth inhibition against human HOP-62 cells assessed as lethal concentration incubated for 48 hrs by sulforhodamine B spectrophotometric assay; assay type: functional; settings: read-out: LC50 (the source's name)
[41] = tested on: SF-295; experiment: Growth inhibition against human SF-295 cells assessed as lethal concentration incubated for 48 hrs by sulforhodamine B spectrophotometric assay; assay type: functional; settings: read-out: LC50 (the source's name)
[42] = tested on: HOP-92; experiment: Growth inhibition against human HOP-92 cells assessed as total growth inhibitory concentration incubated for 48 hrs by sulforhodamine B spectrophotometric assay; assay type: functional
[43] = tested on: SW-620; experiment: Growth inhibition of human SW620 cells incubated for 48 hrs by sulforhodamine B spectrophotometric assay; assay type: functional
[44] = tested on: SF-268; experiment: Growth inhibition against human SF-268 cells assessed as total growth inhibitory concentration incubated for 48 hrs by sulforhodamine B spectrophotometric assay; assay type: functional

With `O=C1C2=C(C(=O)c3c(O)cccc31)C(c1ccco1)c1sc(=O)[nH]c1S2` (centres undefined) as the compound, how does the Activity [1] read?
Its Activity is 1.7%.

And the CC50 [2]?
The CC50 was greater than 100 µM.

What about the IC50 at 72 h [3] of the same compound?
Its IC50 at 72 h is 2.59 µM.

And the Ratio [4]?
Its Ratio is 1.28.

And the Activity [5]?
Its Activity is 41.83%.

What about the IC50 [6] of the same compound?
The IC50 was 0.6 µM.

What about the TGI [7] of the same compound?
The TGI was 2.47 µM.

What about the GI50 [8] of the same compound?
The GI50 was 2.86 µM.

And the Activity [9]?
The Activity was 12.23%.

What about the TGI [10] of the same compound?
Its TGI is 7.55 µM.

What about the TGI [11] of the same compound?
The TGI was 9.88 µM.

What about the survival at 528 h [12] of the same compound?
The survival at 528 h was 100%.

And the IC50 at 72 h [13]?
The IC50 at 72 h was 6.07 µM.

And the CC50 [14]?
The CC50 was 6.75 µM.

And the TGI [15]?
The TGI was 6.14 µM.

And the CC50 [16]?
Its CC50 is 8.59 µM.

What about the GI50 [17] of the same compound?
Its GI50 is 3.15 µM.

What about the GI50 [18] of the same compound?
The GI50 was 2.46 µM.

What about the TGI [19] of the same compound?
Its TGI is 3.63 µM.

What about the TGI [20] of the same compound?
Its TGI is 3.95 µM.

And the CC50 [21]?
The CC50 was 20.1 µM.

And the Activity [22]?
Its Activity is 1.25%.

And the TGI [23]?
The TGI was 3.01 µM.

What about the GI50 [24] of the same compound?
Its GI50 is 2.73 µM.

What about the GI50 [25] of the same compound?
Its GI50 is 3.51 µM.

What about the IC50 [26] of the same compound?
The IC50 was 5.98 µM.

And the TGI [27]?
Its TGI is 16.4 µM.

What about the TGI [28] of the same compound?
The TGI was 14 µM.

What about the GI50 [29] of the same compound?
The GI50 was 2.13 µM.

And the GI50 [30]?
The GI50 was 2.18 µM.

And the GI50 [31]?
Its GI50 is 2.62 µM.

What about the CC50 [32] of the same compound?
The CC50 was 37.3 µM.

And the CC50 [33]?
The CC50 was 5.74 µM.

What about the Activity [34] of the same compound?
Its Activity is “Active”.

And the TGI [35]?
The TGI was 5.57 µM.

And the GI50 [36]?
The GI50 was 7.09 µM.

And the GI50 [37]?
Its GI50 is 3.3 µM.

What about the CC50 [38] of the same compound?
The CC50 was 5.26 µM.

And the CC50 [39]?
Its CC50 is 9.85 µM.

And the CC50 [40]?
Its CC50 is 6.86 µM.

What about the CC50 [41] of the same compound?
Its CC50 is 6.5 µM.

What about the TGI [42] of the same compound?
Its TGI is 8.08 µM.

And the GI50 [43]?
Its GI50 is 3.28 µM.

What about the TGI [44] of the same compound?
The TGI was 19.2 µM.
